From patent publication US9505781B2, “Compositions comprising thienopyrimidine and thienopyridine compounds and methods of use thereof” (The Regents of the University of Michigan, priority 2013, dated 2016)

What follows are molecules tested against T1, menin-MLL interaction (Homo sapiens, UniProt O00255) (assay: biochemical).
T1 sequence (O00255 1-610): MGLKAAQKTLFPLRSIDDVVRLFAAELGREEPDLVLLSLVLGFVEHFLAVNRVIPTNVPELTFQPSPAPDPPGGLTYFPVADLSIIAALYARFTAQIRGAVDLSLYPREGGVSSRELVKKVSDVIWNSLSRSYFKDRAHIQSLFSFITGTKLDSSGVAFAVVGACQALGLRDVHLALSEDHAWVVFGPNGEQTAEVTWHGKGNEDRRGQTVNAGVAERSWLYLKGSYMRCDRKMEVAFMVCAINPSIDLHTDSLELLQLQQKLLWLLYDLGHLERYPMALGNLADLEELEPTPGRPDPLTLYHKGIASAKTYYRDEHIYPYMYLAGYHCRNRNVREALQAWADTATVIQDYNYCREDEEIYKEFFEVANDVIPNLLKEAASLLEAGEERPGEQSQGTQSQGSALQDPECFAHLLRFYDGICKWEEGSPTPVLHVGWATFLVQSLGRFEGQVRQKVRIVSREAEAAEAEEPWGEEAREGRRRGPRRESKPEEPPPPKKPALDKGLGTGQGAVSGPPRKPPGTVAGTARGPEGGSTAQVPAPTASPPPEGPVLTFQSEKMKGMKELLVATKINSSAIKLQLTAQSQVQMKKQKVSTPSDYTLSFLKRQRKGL
From the text: Compounds that inhibit the interaction decrease the fluorescence anisotropy which is being used as a read-out for compound screening and for IC50 determination.

IC50, 500 to 2000 nM:
COCCCc1cc2c(N3CCN(C4=NCC(C)(C)S4)CC3)ncnc2s1 [Compound 25]
O=C(CCCc1ccccc1)N1CCN(c2ncnc3sc(CC(F)(F)F)cc23)CC1 [Compound 93]
FC(F)(F)Cc1cc2c(NC3CCN(Cc4ccccc4C(F)(F)F)CC3)ncnc2s1 [Compound 148]
FC(F)(F)Cc1cc2c(N3CCN(c4nnc(C(F)(F)F)o4)CC3)ncnc2s1 [Compound 20]
N#Cc1nc2cc(CN3CCC(Nc4ncnc5sc(CC(F)(F)F)cc45)CC3)ccc2[nH]1 [Compound 249]
FC(c1cc2c(N3CCN(c4nnc(C(F)(F)F)s4)CC3)ncnc2s1)C(F)(F)F (stereo not shown) [Compound 21]
CCCc1cc2c(NC3CCN(Cc4ccccc4Cl)CC3)ncnc2s1 [Compound 154]
FC(F)(F)Cc1cc2c(NCC3CCN(Cc4ccccc4)CC3)ncnc2s1 [Compound 277]
CCCc1cc2c(NC3CCN(Cc4ccccc4)CC3)ncnc2s1 [Compound 149]
NCc1ccc(CN2CCC(CNc3ncnc4sc(CC(F)(F)F)cc34)CC2)cc1 [Compound 265]
NS(=O)(=O)Cc1ccc(CC(=O)N2C[C@@H]3CC[C@H]2CN3c2ncnc3sc(CC(F)(F)F)cc23)cc1 [Compound 97]
NS(=O)(=O)c1ccc(CN2CCC(Nc3ncnc4sc(CC(F)(F)F)cc34)CC2)cc1 [Compound 156]
CC1(C)CN=C(N2CCN(c3ncnc4sc(CCC5CC5)cc34)CC2)S1 [Compound 36]
O=C1CCc2cc(CN3CCC(Nc4ncnc5sc(CC(F)(F)F)cc45)CC3)ccc2N1 [Compound 136]
CS(=O)(=O)N(CC1CCCC1)c1ccc(CC(=O)N2CCN(c3ncnc4sc(CC(F)(F)F)cc34)CC2)cc1 [Compound 100]
COc1ccc(CN2CCC(CNc3ncnc4sc(CC(F)(F)F)cc34)CC2)cc1 [Compound 273]
FC(F)(F)Cc1cc2c(N3CCN(c4nnc(CCc5ccccc5)s4)CC3)ncnc2s1 [Compound 42]
O=C(CC1CCCCC1)N1CCN(c2ncnc3sc(CC(F)(F)F)cc23)CC1 [Compound 89]
CN1CCN(Cc2ccc(CN3CCC(CNc4ncnc5sc(CC(F)(F)F)cc45)CC3)cc2)CC1 [Compound 267]
CC(C)c1cc2c(N3CCN(c4nnc(C(F)(F)F)s4)CC3)ncnc2s1 [Compound 32]
FC(F)(F)Cc1cc2c(NC3CCN(Cc4ccc(C(F)(F)F)cc4)CC3)ncnc2s1 [Compound 146]

IC50, < 100 nM:
Cc1c(CN2CCC(Nc3ncnc4sc(CC(F)(F)F)cc34)CC2)ccc2c1cc(C#N)n2CC(O)(CO)CCCC1CC1 (stereo not shown) [Compound 425]
N#Cc1cc2cc(CN3CCC(Nc4ncnc5sc(CC(F)(F)F)cc45)CC3)c(O)cc2[nH]1 [Compound 182, 6-hydroxy-5-((4-((6-(2,2,2-trifluoroethyl)thieno[2,3-d]pyrimidin-4-yl)amino)pipendin-1-yl)methyl)-1H-indole-2-carbonitrile]
N#Cc1cc2cc(CN3CCC(Nc4ncnc5sc(CC(F)(F)F)cc45)CC3)ccc2n1CCn1cccn1 [Compound 196]
N#Cc1cc2c(C3CC3)c(CN3CCC(Nc4ncnc5sc(CC(F)(F)F)cc45)CC3)ccc2[nH]1 [Compound 293]
CCCCS(=O)(=O)Nc1ccc(CC(=O)N2CCN(c3ncnc4sc(CC(F)(F)F)cc34)CC2)cc1 [Compound 54]
CC(C)NCCS(=O)(=O)Nc1ccc(CC(=O)N2CCN(c3ncnc4sc(CC(F)(F)F)cc34)CC2)cc1 [Compound 60]
N#Cc1cc2c(CN)c(CN3CCC(Nc4ncnc5sc(CC(F)(F)F)cc45)CC3)ccc2[nH]1 [Compound 294]
Cc1c(CN2CCC(Nc3ncnc4sc(CC(F)(F)F)cc34)CC2)ncc2[nH]c(C#N)cc12 [Compound 380]
Cc1ncc(Cn2c(C#N)cc3c(C)c(CN4CCC(Nc5ncnc6sc(CC(F)(F)F)cc56)CC4)ccc32)s1 [Compound 323]
O=C(Cc1ccc(NS(=O)(=O)CNCC(F)(F)F)cc1)N1CCN(c2ncnc3sc(CC(F)(F)F)cc23)CC1 [Compound 62]
Cc1c(CN2CCC(Nc3ncnc4sc(CC(F)(F)F)cc34)CC2)ccc2c1cc(C#N)n2CCc1cccnc1 [Compound 328]
O=C(Cc1ccc(NS(=O)(=O)N2CCCCC2)cc1)N1CCN(c2ncnc3sc(CC(F)(F)F)cc23)CC1 [Compound 52]
N#Cc1cc2c(C(F)F)c(CN3CCC(Nc4ncnc5sc(CC(F)(F)F)cc45)CC3)ccc2n1CC(N)=O [Compound 310]
N#Cc1cc2cc(CN3CCC(Nc4ncnc5sc(CC(F)(F)F)cc45)CC3)ccc2n1CCCC(F)(F)F [Compound 223]
C=C(Br)Cn1c(C#N)cc2cc(CN3CCC(Nc4ncnc5sc(CC(F)(F)F)cc45)CC3)ccc21 [Compound 306]
Cc1c(CN2CCC(Nc3ncnc4sc(CC(F)(F)F)cc34)CC2)ccc2c1cc(C#N)n2Cc1cnco1 [Compound 361]
COCCOCC(O)(CO)Cn1c(C#N)cc2cc(CN3CCC(Nc4ncnc5sc(CC(F)(F)F)cc45)CC3)ccc21 (stereo not shown) [Compound 314]
Cc1c(CN2CCC(Nc3ncnc4sc(CC(F)(F)F)cc34)CC2)ccc2c1cc(C#N)n2CCN1CCN(S(=O)(=O)N(C)C)CC1 [Compound 375]
CC(C)S(=O)(=O)Nc1ccc(CC(=O)N2CCN(c3ncnc4sc(CC(F)(F)F)cc34)CC2)cc1 [Compound 56]
Cc1c(CN2CCC(Nc3ncnc4sc(CC(F)(F)F)cc34)CC2)ccc2c1cc(C#N)n2CCN1CCNC(C(N)=O)C1 (stereo not shown) [Compound 363]
Cc1c(CN2CCC(Nc3ncnc4sc(CC(F)(F)F)cc34)CC2)ccc2c1cc(C#N)n2CCS(C)(=O)=O [Compound 354]
N#Cc1cc2cc(CN3CCC(Nc4ncnc5sc(CC(F)(F)F)cc45)CC3)ccc2n1Cc1cscn1 [Compound 200]
CC1(C)CN=C(N2C[C@@H]3CC[C@H]2CN3c2ncnc3sc(CC(F)(F)F)cc23)S1 [Compound 2]
N#Cc1cc2cc(CN3CCC(Nc4ncnc5sc(CC(F)(F)F)cc45)CC3)ccc2n1Cc1cn[nH]c1 [Compound 202]
Cc1c(CN2CCC(Nc3ncnc4sc(CC(F)(F)F)cc34)CC2)ccc2c1cc(C#N)n2CCN1CCN(C(C)C)CC1 [Compound 357]
COCCOC(CO)Cn1c(C#N)cc2cc(CN3CCC(Nc4ncnc5sc(CC(F)(F)F)cc45)CC3)ccc21 (stereo not shown) [Compound 316]
N#Cc1cc2cc(CN3CCC(Nc4ncnc5sc(CC(F)(F)F)cc45)CC3)ccc2n1CC(CO)OC(F)F (stereo not shown) [Compound 297]
N#Cc1cc2cc(CN3CCC(Nc4ncnc5sc(CC(F)(F)F)cc45)CC3)ccc2n1Cc1cnn(CCOCC2CC2)c1 [Compound 318]
Cc1c(CN2CCC(Nc3ncnc4sc(CC(F)(F)F)cc34)CC2)ccc2c1cc(C#N)n2CCN1CCN(C(=O)Cc2ccccc2)CC1 [Compound 340]

IC50, 100 to 500 nM:
FC(F)(F)Cc1cc2c(N3CCN(c4nnc(C5CC5)s4)CC3)ncnc2s1 [Compound 3]
N#Cc1cc2cc(CN3CCC(Nc4ncnc5sc(CC(F)(F)F)cc45)CC3)ccc2n1Cc1cc(OCCCCC2CC2)n[nH]1 [Compound 415]
FC(F)(F)Cc1cc2c(NC3CCN(Cc4ccc5cc[nH]c5c4)CC3)ncnc2s1 [Compound 227]
COc1ccc(CCCc2nnc(N3CCN(c4ncnc5sc(CC(F)(F)F)cc45)CC3)s2)cc1 [Compound 12]
Oc1cccc(O)c1CN1CCC(Nc2ncnc3sc(CC(F)(F)F)cc23)CC1 [Compound 111]
N#Cc1cc2c(OC(F)F)c(CN3CCC(Nc4ncnc5sc(CC(F)(F)F)cc45)CC3)ccc2[nH]1 [Compound 408]
Cc1ccccc1CN1CCC(CNc2ncnc3sc(CC(F)(F)F)cc23)CC1 [Compound 258]
Cc1c(CC(F)(F)F)sc2ncnc(NC3CCN(Cc4ccccc4)CC3)c12 [Compound 126]
N#Cc1ccc(N2CCC(N3CCN(c4ncnc5sc(CC(F)(F)F)cc45)CC3)CC2)cc1 [Compound 13]
FC(F)(F)Cc1cc2c(NC3CCN(Cc4ccsc4)CC3)ncnc2s1 [Compound 133]
CNC(=O)CCn1c(C#N)cc2cc(CN3CCC(Nc4ncnc5sc(CC(F)(F)F)cc45)CC3)ccc21 [Compound 239]
FC(F)(F)Cc1cc2c(NCC3CCN(Cc4ccc(Cl)cc4Cl)CC3)ncnc2s1 [Compound 254]
NS(=O)(=O)c1ccc(CN2CCC(CNc3ncnc4sc(CC(F)(F)F)cc34)CC2)c(Cl)c1 [Compound 253]
FC(F)(F)Cc1cc2c(N3CCN(CC4CCCCC4)CC3)ncnc2s1 [Compound 9]
O=C(Cc1ccccc1O)N1CCN(c2ncnc3sc(CC(F)(F)F)cc23)CC1 [Compound 68]
N#Cc1cc2ccc(CN3CCC(Nc4ncnc5sc(CC(F)(F)F)cc45)CC3)cc2[nH]1 [Compound 229]
FC(F)(F)Cc1cc2c(N[C@H]3CCN(Cc4ccccc4)C[C@@H]3NCCC3CCCC3)ncnc2s1 [Compound 171]
